Activity calls are given as the source filed them. No cut-off for these calls is given here.

Assay [1] deals with alpha-glucosidase (Saccharomyces cerevisiae). Put plainly: Inhibition of alpha-glucosidase at 100 ug/ml after 30 mins.
The nature of assay [2]: Inhibition of trypsin at 100 ug/ml.
Assay [3] has as its target T1, Beta-galactosidase (Homo sapiens) (UniProt P16278).
T1 sequence (whole entry): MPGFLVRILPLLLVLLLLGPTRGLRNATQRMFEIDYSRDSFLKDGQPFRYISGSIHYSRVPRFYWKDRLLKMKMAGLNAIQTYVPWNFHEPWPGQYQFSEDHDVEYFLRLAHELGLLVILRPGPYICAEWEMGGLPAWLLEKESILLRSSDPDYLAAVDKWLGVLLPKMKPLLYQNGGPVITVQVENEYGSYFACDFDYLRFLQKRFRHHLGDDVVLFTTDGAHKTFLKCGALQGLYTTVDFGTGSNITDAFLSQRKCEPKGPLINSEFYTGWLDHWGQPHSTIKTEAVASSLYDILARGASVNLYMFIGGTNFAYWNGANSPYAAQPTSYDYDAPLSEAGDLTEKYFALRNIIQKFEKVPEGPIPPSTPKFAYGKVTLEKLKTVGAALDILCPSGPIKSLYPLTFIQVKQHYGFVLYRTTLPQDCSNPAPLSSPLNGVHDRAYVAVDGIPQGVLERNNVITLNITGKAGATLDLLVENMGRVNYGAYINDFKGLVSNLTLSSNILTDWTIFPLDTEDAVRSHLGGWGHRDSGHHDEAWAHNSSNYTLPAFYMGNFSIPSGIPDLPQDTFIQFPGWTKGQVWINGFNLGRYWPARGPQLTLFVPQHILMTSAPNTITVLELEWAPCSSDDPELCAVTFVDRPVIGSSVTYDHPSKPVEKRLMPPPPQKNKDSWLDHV
Put plainly: Inhibition of beta-galactosidase at 100 ug/ml.

In assay [4] the target is T2, Cytosolic beta-glucosidase (Homo sapiens) (UniProt Q9H227).
T2 sequence (whole entry): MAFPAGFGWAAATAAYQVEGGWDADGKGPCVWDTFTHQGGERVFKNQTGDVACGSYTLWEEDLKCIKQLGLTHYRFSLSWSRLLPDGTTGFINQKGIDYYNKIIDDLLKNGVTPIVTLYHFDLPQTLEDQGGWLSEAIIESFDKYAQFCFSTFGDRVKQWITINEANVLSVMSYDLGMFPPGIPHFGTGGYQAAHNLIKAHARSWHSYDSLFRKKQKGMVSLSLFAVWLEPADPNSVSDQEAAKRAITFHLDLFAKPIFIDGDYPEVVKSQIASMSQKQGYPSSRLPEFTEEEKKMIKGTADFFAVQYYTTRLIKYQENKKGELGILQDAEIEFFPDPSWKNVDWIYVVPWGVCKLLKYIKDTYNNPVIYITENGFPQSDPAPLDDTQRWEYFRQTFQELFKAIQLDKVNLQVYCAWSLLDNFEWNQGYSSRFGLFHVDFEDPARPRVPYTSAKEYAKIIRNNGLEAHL
Put plainly: Inhibition of beta-glucosidase at 100 ug/ml.

In assay [5] the target is Prothrombin (Homo sapiens) (UniProt P00734). Put plainly: Inhibition of thrombin at 100 ug/ml.

As for `C#C[C@@H](O)/C=C/CCCCCC#CC#CCCCC#CCCCC#CCCCCCC#CC(=O)OC`, the result in assay [1] was inactive.

As for `C#C[C@@H](O)/C=C/CCCCCC#CC#CCCCC#CCCCC#CCCCCCC#CC(=O)O`, the outcome in assay [2], in assay [3], in assay [4] and in assay [5] was inactive.

For `C#C/C=C\CCCC#CC#CCCCCCC/C=C\C#C`, the result in assay [1] was inactive.

Values taken from ChEMBL document CHEMBL1150600, “Callyspongynic acid, a polyacetylenic acid which inhibits alpha-glucosidase, from the marine sponge Callyspongia truncata” (J Nat Prod, 2002).
